Target: T1, hTRPV3 (Homo sapiens, UniProt Q8NET8)
T1 construct: The commercially available plasmid with the full-length cDNA of hTRPV3 (791 aa) (NM_001258205.2); host or cells: HEK293T
T1 sequence (Q8NET8 1-791 isoform Q8NET8-2): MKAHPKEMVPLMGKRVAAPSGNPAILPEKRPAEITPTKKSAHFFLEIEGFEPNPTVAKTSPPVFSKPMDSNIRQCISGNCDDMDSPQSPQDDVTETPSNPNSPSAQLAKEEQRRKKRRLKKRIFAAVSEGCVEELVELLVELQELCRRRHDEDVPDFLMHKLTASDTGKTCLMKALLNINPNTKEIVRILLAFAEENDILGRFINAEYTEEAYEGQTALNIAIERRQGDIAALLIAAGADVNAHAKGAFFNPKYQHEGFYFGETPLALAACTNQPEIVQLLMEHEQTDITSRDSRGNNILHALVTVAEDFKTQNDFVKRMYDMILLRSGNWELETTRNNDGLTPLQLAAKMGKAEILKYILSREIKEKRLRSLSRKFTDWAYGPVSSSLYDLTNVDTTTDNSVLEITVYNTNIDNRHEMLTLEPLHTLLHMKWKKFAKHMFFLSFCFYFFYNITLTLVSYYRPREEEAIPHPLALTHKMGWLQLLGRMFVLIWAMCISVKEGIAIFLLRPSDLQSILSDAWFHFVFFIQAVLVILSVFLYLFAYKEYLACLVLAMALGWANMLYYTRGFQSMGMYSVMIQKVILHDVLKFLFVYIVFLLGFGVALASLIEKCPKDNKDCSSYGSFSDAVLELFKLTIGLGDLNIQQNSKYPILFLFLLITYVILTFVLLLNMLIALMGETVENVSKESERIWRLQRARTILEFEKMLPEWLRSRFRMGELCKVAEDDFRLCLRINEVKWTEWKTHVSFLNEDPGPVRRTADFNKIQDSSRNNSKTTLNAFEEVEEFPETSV
Assay: Whole-cell patch-clamp recording of hTRPV3 current in transfected HEK293T cells (2-APB induced)
Type: cell-based
Details: current induced by 300 μM 2-APB, compounds tested up to 10 μM, room temperature
Procedure, shortened: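 HEK293T cells transiently expressing full-length hTRPV3, recorded by whole-cell patch clamp 18 h post-transfection at room temperature, with 130 mM NaCl/0.3 mM EDTA/3 mM HEPES pH 7.4 on both sides. Holding potential 0 mV; 400-ms steps to +80 and −80 mV every 2 s. Block of 2-APB-evoked current, tested up to 10 μM, fitted to Hill equation for IC50.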

SMILES	IC50
COc1ncnc(OC)c1C(=O)Nc1nc2c(s1)COc1ccc(C)cc1-2 [compound 16, 4,6-dimethoxy-N-(8-methyl-4H-chromeno[4,3-d]thiazol-2-yl)pyrimidine-5-carboxamide]	≥ 10000 nM
COc1ncnc(OC)c1C(=O)Nc1nc2c(s1)C1(CN(C(C)C)C1)Oc1cc(C#N)ccc1-2 [compound 148, N-(7′-cyano-1-isopropylspiro[azetidine-3,4′-chromeno[4,3-d]thiazol]-2′-yl)-4,6-dimethoxypyrimidine-5-carboxamide]	100 to 1000 nM
CCC1(CC)Oc2cc(C(F)(F)F)ccc2-c2nc(NC(=O)c3nccnc3OC)sc21 [compound 96, N-(4,4-diethyl-7-(trifluoromethyl)-4H-chromeno[4,3-d]thiazol-2-yl)-3-methoxypyrazine-2-carboxamide]	1000 to 10000 nM
COc1ncnc(OC)c1C(=O)Nc1nc2c(s1)C1(CN(C(C)C)C1)Oc1cc(C(C)C)ccc1-2 [compound 145, N-(1,7′-diisopropylspiro[azetidine-3,4′-chromeno[4,3-d]thiazol]-2′-yl)-4,6-dimethoxypyrimidine-5-carboxamide]	100 to 1000 nM
COc1ncnc(OC)c1C(=O)Nc1nc2c(s1)C1(CN(CCO)C1)Oc1cc(C(F)(F)F)ccc1-2 [compound 166, N-(1-(2-hydroxyethyl)-7′-(trifluoromethyl)spiro[azetidine-3,4′-chromeno[4,3-d]thiazol]-2′-yl)-4,6-dimethoxypyrimidine-5-carboxamide]	100 to 1000 nM
COc1ncnc(OC)c1C(=O)Nc1nc2c(s1)C1(CCC(C)CC1)Oc1cc(C(F)(F)F)ccc1-2 (centres unmarked) [compound 33, 4,6-dimethoxy-N-(4′-methyl-7-(trifluoromethyl)spiro[chromeno[4,3-d]thiazole-4,1′-cyclohexan]-2-yl)pyrimidine-5-carboxamide]	100 to 1000 nM
COc1ncnc(OC)c1C(=O)Nc1nc2c(s1)C1(CC(C)CC(C)C1)Oc1cc(C(F)(F)F)ccc1-2 (centres unmarked) [compound 37, N-(3′,5′-dimethyl-7-(trifluoromethyl)spiro[chromeno[4,3-d]thiazole-4,1′-cyclohexan]-2-yl)-4,6-dimethoxypyrimidine-5-carboxamide]	100 to 1000 nM
COCCN1CC2(C1)Oc1cc(C(F)(F)F)ccc1-c1nc(NC(=O)c3c(OC)ncnc3OC)sc12 [compound 157, 4,6-dimethoxy-N-(1-(2-methoxyethyl)-7′-(trifluoromethyl)spiro[azetidine-3,4′-chromeno[4,3-d]thiazol]-2′-yl)pyrimidine-5-carboxamide]	< 100 nM
COc1ncnc(OC)c1C(=O)Nc1nc2c(s1)C1(CCC(C(C)(C)C)CC1)Oc1cc(C(F)(F)F)ccc1-2 (centres unmarked) [compound 18, N-(4′-(tert-butyl)-7-(trifluoromethyl)spiro[chromeno[4,3-d]thiazole-4,1′-cyclohexan]-2-yl)-4,6-dimethoxypyrimidine-5-carboxamide]	1000 to 10000 nM
COc1ncnc(OC)c1C(=O)Nc1nc2c(s1)C1(CN(C(=O)c3ccco3)C1)Oc1cc(C(F)(F)F)ccc1-2 [compound 76, N-(1-(furan-2-carbonyl)-7′-(trifluoromethyl)spiro[azetidine-3,4′-chromeno[4,3-d]thiazol]-2′-yl)-4,6-dimethoxypyrimidine-5-carboxamide]	1000 to 10000 nM
COc1ncnc(OC)c1C(=O)Nc1nc2c(s1)C1(CCC(C(=O)OC(C)C)CC1)Oc1cc(C(F)(F)F)ccc1-2 (centres unmarked) [compound 123, isopropyl 2-(4,6-dimethoxypyrimidine-5-carboxamido)-7-(trifluoromethyl)spiro[chromeno[4,3-d]thiazole-4,1′-cyclohexane]-4′-carboxylate]	< 100 nM
COc1ncnc(OC)c1C(=O)Nc1nc2c(s1)C1(CCCCCC1)Oc1cc(C(F)(F)F)ccc1-2 [compound 26, 4,6-dimethoxy-N-(7-(trifluoromethyl)spiro[chromeno[4,3-d]thiazole-4,1′-cycloheptan]-2-yl)pyrimidine-5-carboxamide]	100 to 1000 nM
COc1ncnc(OCCN(C)C)c1C(=O)Nc1nc2c(s1)C1(COC1)Oc1cc(C(F)(F)F)ccc1-2 [compound 151, 4-(2-(dimethylamino)ethoxy)-6-methoxy-N-(7-(trifluoromethyl)spiro[chromeno[4,3-d]thiazole-4,3′-oxetan]-2-yl)pyrimidine-5-carboxamide]	1000 to 10000 nM
COc1ncnc(OC)c1C(=O)Nc1nc2c(s1)C1(CCC(NC(=O)OC(C)(C)C)CC1)Oc1cc(C(F)(F)F)ccc1-2 (centres unmarked) [compound 109]	100 to 1000 nM
COc1ncnc(OC)c1C(=O)Nc1nc2c(s1)C(C)(C)Oc1cc(C(F)(F)F)ccc1-2 [compound 8, N-(4,4-dimethyl-7-(trifluoromethyl)-4H-chromeno[4,3-d]thiazol-2-yl)-4,6-dimethoxypyrimidine-5-carboxamide]	100 to 1000 nM
COc1ncnc(OC)c1C(=O)Nc1nc2c(s1)c(=O)oc1cc(C(F)(F)F)ccc12 [compound 9, 4,6-dimethoxy-N-(4-oxo-7-(trifluoromethyl)-4H-chromeno[4,3-d]thiazol-2-yl)pyrimidine-5-carboxamide]	≥ 10000 nM
CCC1(CC)Oc2cc(C(C)=O)ccc2-c2nc(NC(=O)c3c(OC)ncnc3OC)sc21 [compound 117, N-(7-acetyl-4,4-diethyl-4H-chromeno[4,3-d]thiazol-2-yl)-4,6-dimethoxypyrimidine-5-carboxamide]	1000 to 10000 nM
COc1ncnc(OC)c1C(=O)Nc1nc2c(s1)C1(CCC(C(=O)N(C)C(C)C)CC1)Oc1cc(C(F)(F)F)ccc1-2 (centres unmarked) [compound 127, 2-(4,6-dimethoxypyrimidine-5-carboxamido)-N-isopropyl-N-methyl-7-(trifluoromethyl)spiro[chromeno[4,3-d]thiazole-4,1′-cyclohexane]-4′-carboxamide]	100 to 1000 nM
COc1ncnc(OC)c1C(=O)Nc1nc2c(s1)C1(CC(NC(=O)OC(C)(C)C)C1)Oc1cc(C(F)(F)F)ccc1-2 (centres unmarked) [compound 131, tert-butyl(2-(4,6-dimethoxypyrimidine-5-carboxamido)-7-(trifluoromethyl)spiro[chromeno[4,3-d]thiazole-4,1′-cyclobutan]-3′-yl)carbamate]	100 to 1000 nM
COc1ncnc(OC)c1C(=O)Nc1nc2c(s1)C1(CCOCC1)Oc1cc(C(F)(F)F)ccc1-2 [compound 59, 4,6-dimethoxy-N-(7-(trifluoromethyl)-2′,3′,5′,6′-tetrahydrospiro[chromeno[4,3-d]thiazole-4,4′-pyran]-2-yl)pyrimidine-5-carboxamide]	100 to 1000 nM
COc1ncnc(OC)c1C(=O)Nc1nc2c(s1)C1(CCC(C)(C)CC1)Oc1cc(C(F)(F)F)ccc1-2 [compound 34, N-(4′,4′-dimethyl-7-(trifluoromethyl)spiro[chromeno[4,3-d]thiazole-4,1′-cyclohexan]-2-yl)-4,6-dimethoxypyrimidine-5-carboxamide]	100 to 1000 nM
CCC1(CC)Oc2cc(C(F)(F)F)ccc2-c2nc(NC(=O)c3c(OC)nn(C)c3Br)sc21 [compound 161, 5-bromo-N-(4,4-diethyl-7-(trifluoromethyl)-4H-chromeno[4,3-d]thiazol-2-yl)-3-methoxy-1-methyl-1H-pyrazole-4-carboxamide]	≥ 10000 nM
CCC1(CC)Oc2cc3c(cc2-c2nc(NC(=O)c4c(OC)ncnc4OC)sc21)OCO3 [compound 51, N-(4,4-diethyl-4H-[1,3]dioxolo[4′,5′: 6,7]chromeno[4,3-d]thiazol-2-yl)-4,6-dimethoxypyrimidine-5-carboxamide]	≥ 10000 nM
